Key:
THP1 cells = assay: Lipopolysaccharide-activated THP1 cell TNF production assay; format: cell-based, human; details: Homo sapiens, THP-1; LPS-induced TNF-α production in THP1 cells
Procedure: Lipopolysaccharide-Activated THP1 Cell TNF Production Assay
THP1 cells are resuspended in fresh THP1 media (RPMI 1640, 10% heat-inactivated FBS, 1×PGS, 1×NEAA, plus 30 μM βME) at a concentration of 1E6/mL. One hundred microliters of cells per well are plated in a polystyrene 96-well tissue culture. One microgram per mL of bacterial LPS is prepared in THP1 media and is transferred to the wells. Test compounds are dissolved in 100% DMSO and are serially diluted 3-fold in a polypropylene 96-well microtiter plate (drug plate). HI control and LO control wells contain only DMSO. One microliter of test compound from the drug plate followed by 10 μL of LPS are transferred to the cell plate. The treated cells are induced to synthesize and secrete TNF-α at 37° C. for 3 h. Forty microliters of conditioned media are transferred to a 96-well polypropylene plate containing 110 μL of ECL buffer (50 mM Tris-HCl pH 8.0, 100 mM NaCl, 0.05% Tween 20, 0.05% NaN3 and 1% FBS) supplemented with 0.44 nM MAB610 monoclonal Ab (R&D Systems), 0.34 nM ruthenylated AF210NA polyclonal Ab (R&D Systems) and 44 μg/mL sheep anti-mouse M280 Dynabeads (Dynal). After a 2 h incubation at room temperature with shaking, the reaction is read on the ECL M8 Instrument (IGEN Inc.). A low voltage is applied to the ruthenylated TNF-α immune complexes, which in the presence of TPA (the active component in Origlo), results in a cyclical redox reaction generating light at […]. The amount of secreted TNF-α in the presence of compound compared with that in the presence of DMSO vehicle alone (HI control) is calculated using the formula: % control (POC)=(cpd−average LO)/(average HI−average LO)*100. Data (consisting of POC and inhibitor concentration in μM) is fitted to a 4-parameter equation (y=A+((B−A)/(1+((x/C)^D))), where A is the minimum y (POC) value, B is the maximum y (POC), C is the x (cpd concentration) at the point of inflection and D is the slope factor) using a Levenburg-Marquardt non-linear regression algorithm.

p38α = p38α (Homo sapiens, UniProt Q16539); assay: p38 in-vitro HTRF enzyme assay; format: biochemical; details: IC50 value ranges
Sequence of p38α (Q16539 whole entry): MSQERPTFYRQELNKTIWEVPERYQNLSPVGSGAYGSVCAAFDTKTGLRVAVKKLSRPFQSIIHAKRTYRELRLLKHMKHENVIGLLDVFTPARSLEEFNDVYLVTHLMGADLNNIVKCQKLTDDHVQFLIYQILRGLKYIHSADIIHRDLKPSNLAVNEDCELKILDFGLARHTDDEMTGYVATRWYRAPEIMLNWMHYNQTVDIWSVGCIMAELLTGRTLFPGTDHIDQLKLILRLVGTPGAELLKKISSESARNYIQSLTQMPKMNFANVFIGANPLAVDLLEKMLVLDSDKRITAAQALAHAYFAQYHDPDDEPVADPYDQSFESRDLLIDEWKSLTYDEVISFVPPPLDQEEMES
Procedure: p38 In-Vitro HTRF Enzyme Assay
The compounds of the invention can be tested for their respective affinities for the p38 protein using a conventional p38 in-vitro enzyme activity assay. For example, a P38-alpha HTRF assay may be used to measure the protein's in-vitro phosphorylation activity, and the data analyzed using time resolved fluorimetry techniques (FRET). A p38 HTRF assay is as follows. The kinase reaction buffer for p38α, p38β, p38δ and p38γ HTRF assays consists of 50 mM Tris-pH 7.5, 5 mM MgCl2, 0.1 mg/mL BSA, 100 μM Na3VO4 and 0.5 mM DTT. The HTRF detection buffer contains 100 mM HEPES-pH 7.5, 100 mM NaCl, 0.1% BSA, 0.05% Tween-20, and 10 mM EDTA. Each compound was dissolved in 100% DMSO and serially diluted (3 fold, 10 point) in a polypropylene 96-well microtiter plate (drug plate). The final starting concentration of the compound in the p38α and p38β enzymatic assays was about 1 μM. The final starting concentration of each compound in the p38δ and p38γ enzymatic assays was about 10 μM. The p38α, p38β, p38δ and p38γ kinase reactions were carried out in a polypropylene 96-well black round bottom assay plate in total volume of 30 μL kinase reaction buffer. Appropriate concentration of purified and activated enzyme (recombinant human) was mixed with indicated concentration of ATP and 100 nM GST-ATF2-Avitag, in the presence or absence (HI control) of each compound. In the absence of enzyme, the background was measured as LO control. HI controls and LO controls contained only DMSO. The reaction was allowed to incubate for 1 hour at RT. […] After 60 minutes incubation at room temperature, the assay plate was read in a Discovery Plate Reader. The wells were excited with coherent 320 nm light and the ratio of delayed ([…] post excitation) emissions at […] (native europium fluorescence) and 665 nm (europium fluorescence transferred to allophycocyanin—an index of substrate phosphorylation) was determined (Park et al, 1999). The resulting data was analyzed by taking the proportion of substrate phosphorylated in the kinase reaction in the presence of each individual compound and comparing it with that phosphorylated in the presence of DMSO vehicle alone (HI control). The data was calculated using the formula: % control (POC)=(compound−average LO)/(average HI−average LO)*100. Data (consisting of POC and inhibitor concentration in μM) was fitted to a 4-parameter equation (y=A+((B−A)/(1+((x/C)^D))), where A is the minimum y (POC) value, B is the maximum y (POC), C is the x (compound concentration) at the point of inflection and D is the slope factor, using a Levenburg-Marquardt non-linear regression algorithm. The inhibition constant (Ki) of the inhibitor was estimated from the IC50 (compound concentration at the point of inflection C) using the Cheng-Prussof equation: Ki=IC50/(1+S/Km), where S is the ATP substrate concentration, and Km is the Michaelis constant for ATP as determined experimentally. All results were expressed as the mean±the standard error of the mean. Data acquisition and non-linear regression algorithms were performed using Activity Base v5.2 and XLfit software v4.1 respectively. Additional assay information may be obtained in Park Y W, Cummings R T, Wu L, et al. Homogeneous Proximity Tyrosine Kinase Assays Scintillation Proximity Assay versus Homogeneous Time-Resolved Fluorescence. Analytical Biochemistry. 1999; 269: 94-104.

monocytes = assay: Lipopolysaccharide-activated monocyte TNF production assay (LPS induced TNF release); format: cell-based, human; details: Homo sapiens, Monocyte; LPS induced TNF release from monocytes; read-out: LPS induced TNFa
Procedure: Lipopolysaccharide-Activated Monocyte TNF Production Assay
Test compounds were evaluated in vitro for the ability to inhibit the production of TNF by monocytes activated with bacterial lipopolysaccharide (LPS). Fresh residual source leukocytes (a byproduct of plateletpheresis) were obtained from a local blood bank, and peripheral blood mononuclear cells (PBMCs) were isolated by density gradient centrifugation on Ficol-Paque Plus (Pharmacia). PBMCs were suspended at 2×10^6/mL in DMEM supplemented to contain 2% FCS, 10 mM, 0.3 mg/mL […], 100 U/mL penicillin G and […] streptomycin sulfate (complete media). Cells were plated into Falcon flat bottom, 96 well culture plates (200 μL/well) and cultured overnight at 37° C. and 6% CO2. Non-adherent cells were removed by washing with 200 μl/well of fresh medium. Wells containing adherent cells (˜70% monocytes) were replenished with 100 μL of fresh medium.
Preparation of Test Compound Stock Solutions
Test compounds were dissolved in […]. Compound stock solutions were prepared to an initial concentration of […]. Stocks were diluted initially to […] in complete media. Nine two-fold serial dilutions of each compound were then prepared in complete medium.
Treatment of Cells with Test Compounds and Activation of TNF Production with Lipopolysaccharide
One hundred microliters of each test compound dilution were added to microtiter wells containing adherent monocytes and 100 μL complete medium. Monocytes were cultured with test compounds for 60 min at which time 25 μL of complete medium containing 30 ng/mL lipopolysaccharide from E. coli K532 were added to each well. Cells were cultured an additional 4 hrs. Culture supernatants were then removed and TNF presence in the supernatants was quantified using an ELISA.
Flat bottom, 96 well Corning High Binding ELISA plates were coated overnight (4° C.) with 150 μL/well of 3 μg/mL murine anti-human TNF-α MAb (R&D Systems #MAB210). Wells were then blocked for 1 h at room temperature with 200 μL/well of CaCl2-free ELISA buffer supplemented to contain 20 mg/mL BSA (standard ELISA buffer: […], 150 mM NaCl, 2 mM CaCl2, 0.15 mM thimerosal, pH 7.4). Plates were washed and replenished with 100 μL of test supernatants (diluted 1:3) or standards. Standards consisted of eleven 1.5-fold serial dilutions from a stock of 1 ng/mL recombinant human TNF (R&D Systems). Plates were incubated at room temperature for 1 h on orbital shaker (300 rpm), washed and replenished with 100 μL/well of 0.5 μg/mL goat anti-human TNF-α (R&D systems #AB-210-NA) biotinylated at a 4:1 ratio. Plates were incubated for 40 min, washed and replenished with 100 μL/well of alkaline phosphatase-conjugated streptavidin (Jackson ImmunoResearch #016-050-084) at 0.02 μg/mL. Plates were incubated 30 min, washed and replenished with 200 μL/well of 1 mg/mL of p-nitrophenyl phosphate.
Standard curve data were fit to a second order polynomial and unknown TNF-α concentrations determined from their OD by solving this equation for concentration. TNF concentrations were then plotted vs. test compound concentration using a second order polynomial. This equation was then used to calculate the concentration of test compounds causing a 50% reduction in TNF production.

Row | IC50 (THP1 cells) | IC50 (p38α) | IC50 (monocytes) | SMILES
1 | < 25 nM | < 25 nM | < 25 nM | Cc1ccccc1-c1nnc2cc(-c3cc(C(=O)NC4CC4)cc(F)c3C)ccn12 [Example 82, N-cyclopropyl-3-fluoro-4-methyl-5-(3-(2-methylphenyl)[1,2,4]triazolo[4,3-a]pyridin-7-yl)benzamide]
2 | 100 to 250 nM | 25 to 100 nM | 250 to 1000 nM | Cc1ccc(C(=O)NC(C)C)cc1-c1ccn2c(-c3ccccc3Cl)nnc2c1 [Example 43, 3-(3-(2-chlorophenyl)[1,2,4]triazolo[4,3-a]pyridin-7-yl)-4-methyl-N-(1-methylethyl)benzamide]
3 | < 25 nM | < 25 nM | 25 to 100 nM | Cc1c(F)cc(C(=O)NC2CC2)cc1-c1ccn2c(-c3ccncc3Cl)nnc2c1 [Example 79, 3-(3-(3-chloro-4-pyridinyl)[1,2,4]triazolo[4,3-a]pyridin-7-yl)-N-cyclopropyl-5-fluoro-4-methylbenzamide]
4 | 100 to 250 nM | < 25 nM | 100 to 250 nM | Cc1ccc(C(=O)NC2CC2)cc1-c1ccn2c(-c3cc(F)c(F)cc3Cl)nnc2c1 [Example 48, 3-(3-(2-chloro-4,5-difluorophenyl)[1,2,4]triazolo[4,3-a]pyridin-7-yl)-N-cyclopropyl-4-methylbenzamide]
5 | 25 to 100 nM | < 25 nM | 100 to 250 nM | CCc1ccccc1-c1nnc2cc(-c3cc(C(=O)NC4CC4)ccc3C)ccn12 [Example 103, N-cyclopropyl-3-(3-(2-ethylphenyl)[1,2,4]triazolo[4,3-a]pyridin-7-yl)-4-methylbenzamide]
6 | < 25 nM | < 25 nM | < 25 nM | Cc1ccc(C(=O)Nc2ccnn2C)cc1-c1ccn2c(-c3ccccc3Cl)nnc2c1 [Example 3, 3-(3-(2-chlorophenyl)[1,2,4]triazolo[4,3-a]pyridin-7-yl)-4-methyl-N-(1-methyl-1H-pyrazol-5-yl)benzamide]
7 | < 25 nM | < 25 nM | < 25 nM | Cc1c(F)cc(C(=O)NC2CC2)cc1-c1ccn2c(-c3ccccc3C(F)(F)F)nnc2c1 [Example 74, N-cyclopropyl-3-fluoro-4-methyl-5-(3-(2-(trifluoromethyl)phenyl)[1,2,4]triazolo[4,3-a]pyridin-7-yl)benzamide]
8 | < 25 nM | < 25 nM | < 25 nM | Cc1cccc(F)c1-c1nnc2cc(-c3cc(C(=O)NC4CC4)cc(F)c3C)ccn12 [Example 83, N-cyclopropyl-3-fluoro-5-(3-(2-fluoro-6-methylphenyl)[1,2,4]triazolo[4,3-a]pyridin-7-yl)-4-methylbenzamide]
9 | 25 to 100 nM | 25 to 100 nM | 100 to 250 nM | Cc1c(F)cc(C(=O)Nc2ccnn2C)cc1-c1ccn2c(-c3c(F)cccc3Cl)nnc2c1 [Example 61, 3-(3-(2-chloro-6-fluorophenyl)[1,2,4]triazolo[4,3-a]pyridin-7-yl)-5-fluoro-4-methyl-N-(1-methyl-1H-pyrazol-5-yl)benzamide]
10 | < 25 nM | < 25 nM |  | Cc1ccc(C(=O)NC2CC2)cc1-c1ccn2c(C3(C(F)(F)F)CC3)nnc2c1 [Example 21, N-cyclopropyl-4-methyl-3-(3-(1-(trifluoromethyl)cyclopropyl)[1,2,4]triazolo[4,3-a]pyridin-7-yl)benzamide]
11 | 25 to 100 nM | < 25 nM |  | Cc1ccc(C(=O)NC2CC2)cc1-c1ccn2c(C(C)C)nnc2c1 [Example 27, N-cyclopropyl-4-methyl-3-(3-(1-methylethyl)[1,2,4]triazolo[4,3-a]pyridin-7-yl)benzamide]
12 | 100 to 250 nM | < 25 nM |  | Cc1ccc(C(=O)NC2CC2)cc1-c1ccn2c(-c3ccc(S(C)(=O)=O)cc3Cl)nnc2c1 [Example 26, 3-(3-(2-chloro-4-(methylsulfonyl)phenyl)[1,2,4]triazolo[4,3-a]pyridin-7-yl)-N-cyclopropyl-4-methylbenzamide]

From patent publication US7700593B2, “Imidazo- and triazolo-pyridine compounds and methods of use thereof” (Amgen Inc., priority 2006, dated 2010)
